Source: BindingDB's records for doi:10.1021/jm00159a020 (1986)

Assay: Potency against rat brain adenosine A1 receptor at 10 uM

CCCCN(C)C(=O)[C@H]1OC(n2cnc3c(NC(CC)CC)ncnc32)[C@H](O)[C@@H]1O (stereo partly specified)
% displacement at 10 µM: 10%
